Reference: ChEMBL document CHEMBL6109040, “Tyrosine kinase 2 inhibitors: Synthesis and applications in the treatment of autoimmune diseases” (Eur J Med Chem, 2025)
One block for each compound: values may come before it.

Assays:
[1] = Inhibition of IL-12 induced IFNgamma production in human NK92 cells; assay type: functional, cell-based, NK-92
[2] = molecular target: T1, Tyrosine-protein kinase JAK1 (Homo sapiens, UniProt P23458); assay: Inhibition of JAK1 (unknown origin)
[3] = Cmax in BALB/c mouse at 5 mg/kg, po by LC-MS/MS analysis; assay type: ADME, organism-based; settings: in vivo
[4] = AUC in BALB/c mouse at 5 mg/kg, po by LC-MS/MS analysis; assay type: ADME, organism-based; settings: in vivo
[5] = molecular target: T2, Non-receptor tyrosine-protein kinase TYK2 (Homo sapiens, UniProt P29597); assay: Inhibition of TYK2 JH2 pseudokinase domain (unknown origin) by TR-FRET assay
T2 sequence (P29597 whole entry, the tested form may be a part): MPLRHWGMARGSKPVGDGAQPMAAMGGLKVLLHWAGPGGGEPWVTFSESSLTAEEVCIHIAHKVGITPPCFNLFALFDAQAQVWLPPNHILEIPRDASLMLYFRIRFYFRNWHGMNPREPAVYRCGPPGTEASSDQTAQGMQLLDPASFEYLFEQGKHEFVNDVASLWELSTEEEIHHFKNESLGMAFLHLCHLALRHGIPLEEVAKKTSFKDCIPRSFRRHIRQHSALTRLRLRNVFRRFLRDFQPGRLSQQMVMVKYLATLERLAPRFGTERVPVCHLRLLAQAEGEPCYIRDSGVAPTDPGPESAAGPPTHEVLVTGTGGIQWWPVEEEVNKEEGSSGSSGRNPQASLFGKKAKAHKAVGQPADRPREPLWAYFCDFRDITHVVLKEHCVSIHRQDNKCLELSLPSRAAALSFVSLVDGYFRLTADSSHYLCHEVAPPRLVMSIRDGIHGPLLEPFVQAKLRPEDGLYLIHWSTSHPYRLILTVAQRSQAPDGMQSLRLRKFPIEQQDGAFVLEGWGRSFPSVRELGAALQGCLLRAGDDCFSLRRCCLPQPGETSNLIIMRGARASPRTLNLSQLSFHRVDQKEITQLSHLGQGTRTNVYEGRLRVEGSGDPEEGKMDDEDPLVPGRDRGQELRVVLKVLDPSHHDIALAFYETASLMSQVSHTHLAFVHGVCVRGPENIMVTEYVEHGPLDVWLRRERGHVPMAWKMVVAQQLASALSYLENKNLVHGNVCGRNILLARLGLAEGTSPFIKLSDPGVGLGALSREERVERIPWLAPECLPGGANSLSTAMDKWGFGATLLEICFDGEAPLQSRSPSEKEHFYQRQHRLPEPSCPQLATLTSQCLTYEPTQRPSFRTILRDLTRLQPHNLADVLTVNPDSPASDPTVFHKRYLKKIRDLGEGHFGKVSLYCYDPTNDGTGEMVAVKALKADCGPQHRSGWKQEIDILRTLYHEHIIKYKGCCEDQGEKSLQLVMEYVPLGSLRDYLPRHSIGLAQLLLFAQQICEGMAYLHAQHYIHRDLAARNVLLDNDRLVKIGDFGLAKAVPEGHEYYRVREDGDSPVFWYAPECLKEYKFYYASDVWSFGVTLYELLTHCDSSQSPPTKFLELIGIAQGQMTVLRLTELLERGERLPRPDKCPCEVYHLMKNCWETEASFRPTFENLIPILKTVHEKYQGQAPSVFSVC

[6] = molecular target: Tyrosine-protein kinase JAK2 (Homo sapiens, UniProt O60674); assay: Binding affinity to JAK2 […] pseudokinase domain (unknown origin) assessed as dissociation constant by TR-FRET assay
Tyrosine-protein kinase JAK2, sequence (O60674 whole entry, the tested form may be a part): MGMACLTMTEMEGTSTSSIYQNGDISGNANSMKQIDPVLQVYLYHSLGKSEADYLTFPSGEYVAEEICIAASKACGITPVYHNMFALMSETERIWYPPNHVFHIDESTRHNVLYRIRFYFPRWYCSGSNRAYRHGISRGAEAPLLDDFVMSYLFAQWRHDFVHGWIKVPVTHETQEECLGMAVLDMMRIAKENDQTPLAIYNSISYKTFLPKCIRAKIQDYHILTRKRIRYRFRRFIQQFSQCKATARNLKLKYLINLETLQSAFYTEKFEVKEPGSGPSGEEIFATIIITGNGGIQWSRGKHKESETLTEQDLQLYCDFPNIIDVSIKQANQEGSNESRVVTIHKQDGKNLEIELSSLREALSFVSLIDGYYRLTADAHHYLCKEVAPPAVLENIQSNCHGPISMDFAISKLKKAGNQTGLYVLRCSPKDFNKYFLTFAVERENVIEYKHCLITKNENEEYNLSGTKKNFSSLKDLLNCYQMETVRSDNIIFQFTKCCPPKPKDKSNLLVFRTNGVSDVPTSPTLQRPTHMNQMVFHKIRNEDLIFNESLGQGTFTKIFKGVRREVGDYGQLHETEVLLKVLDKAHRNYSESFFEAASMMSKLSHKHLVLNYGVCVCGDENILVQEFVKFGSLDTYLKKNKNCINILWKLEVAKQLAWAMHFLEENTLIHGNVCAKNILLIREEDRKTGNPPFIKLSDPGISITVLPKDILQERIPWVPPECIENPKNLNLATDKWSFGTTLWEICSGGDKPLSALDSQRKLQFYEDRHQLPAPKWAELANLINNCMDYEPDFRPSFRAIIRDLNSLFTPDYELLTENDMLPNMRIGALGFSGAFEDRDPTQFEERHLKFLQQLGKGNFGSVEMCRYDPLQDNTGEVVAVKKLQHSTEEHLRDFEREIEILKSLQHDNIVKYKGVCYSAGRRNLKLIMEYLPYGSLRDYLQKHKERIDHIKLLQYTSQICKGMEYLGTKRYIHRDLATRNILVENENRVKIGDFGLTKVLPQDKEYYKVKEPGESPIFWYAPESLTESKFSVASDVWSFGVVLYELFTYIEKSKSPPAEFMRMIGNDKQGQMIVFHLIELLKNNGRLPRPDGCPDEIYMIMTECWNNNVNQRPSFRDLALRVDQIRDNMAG

[7] = molecular target: T1, Tyrosine-protein kinase JAK1; assay: Binding affinity to recombinant human JAK1 JH2 (553 to 856 residues) pseudokinase domain assessed as inhibition constant by fluorescence polarization assay
[8] = molecular target: T2, Non-receptor tyrosine-protein kinase TYK2; assay: Binding affinity to TYK2 JH2 (556 to 888 residues) pseudokinase domain (unknown origin) assessed as dissociation constant by KINOMEscan assay
[9] = Inhibition of IFNalpha-induced STAT5 phosphorylation in human PBMC cells; assay type: cell-based
[10] = molecular target: T2, Non-receptor tyrosine-protein kinase TYK2; assay: Binding affinity to recombinant human TYK2 JH2 (564 to 876 residues) pseudokinase domain assessed as dissociation constant by fluorescence polarization assay

T1 sequence (P23458 whole entry): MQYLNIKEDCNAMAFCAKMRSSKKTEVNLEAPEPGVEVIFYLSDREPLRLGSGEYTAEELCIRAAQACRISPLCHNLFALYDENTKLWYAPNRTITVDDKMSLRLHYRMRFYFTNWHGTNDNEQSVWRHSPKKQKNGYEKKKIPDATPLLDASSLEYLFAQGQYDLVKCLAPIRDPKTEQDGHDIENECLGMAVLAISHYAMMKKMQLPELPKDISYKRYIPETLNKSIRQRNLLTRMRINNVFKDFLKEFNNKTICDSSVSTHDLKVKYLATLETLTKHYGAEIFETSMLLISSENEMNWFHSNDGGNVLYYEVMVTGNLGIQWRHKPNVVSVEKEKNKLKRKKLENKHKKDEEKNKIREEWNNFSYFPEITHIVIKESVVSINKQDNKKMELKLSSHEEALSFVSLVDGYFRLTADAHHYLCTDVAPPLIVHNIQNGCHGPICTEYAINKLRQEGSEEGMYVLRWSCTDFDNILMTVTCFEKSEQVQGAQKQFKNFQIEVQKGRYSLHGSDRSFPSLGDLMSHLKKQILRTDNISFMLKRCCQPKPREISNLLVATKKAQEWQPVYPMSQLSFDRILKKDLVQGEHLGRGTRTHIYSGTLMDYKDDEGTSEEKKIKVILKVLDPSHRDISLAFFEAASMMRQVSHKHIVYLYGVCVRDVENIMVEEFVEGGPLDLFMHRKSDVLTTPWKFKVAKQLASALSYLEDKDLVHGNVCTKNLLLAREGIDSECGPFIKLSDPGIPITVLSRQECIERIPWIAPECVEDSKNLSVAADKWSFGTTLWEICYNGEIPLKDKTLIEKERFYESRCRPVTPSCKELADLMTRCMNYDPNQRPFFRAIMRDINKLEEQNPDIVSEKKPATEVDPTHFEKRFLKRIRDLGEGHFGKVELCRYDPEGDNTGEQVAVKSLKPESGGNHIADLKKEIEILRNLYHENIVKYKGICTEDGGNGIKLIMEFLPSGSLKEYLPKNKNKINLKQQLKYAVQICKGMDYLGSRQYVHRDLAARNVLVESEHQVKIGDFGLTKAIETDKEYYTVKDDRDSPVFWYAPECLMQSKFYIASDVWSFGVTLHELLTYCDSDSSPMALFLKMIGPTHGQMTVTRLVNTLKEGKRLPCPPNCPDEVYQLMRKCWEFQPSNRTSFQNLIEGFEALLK

IC50 [1]: 0.243 nM
Compound: CC(=O)Nc1cc(Nc2cccc(S(C)(=O)=O)n2)c(-c2ccccn2)cn1

IC50 [2]: 5900 nM
Compound: CNC(=O)c1nnc(NC(=O)N2CCC2)cc1Nc1cccc(-c2ncn(C)n2)c1OC

IC50 [1]: 80 nM
Compound: NC(=O)c1nnc(-c2c(F)cccc2F)cc1Nc1ccc(N2CCOCC2)cn1

Cmax [3]: 1160 ng/mL
AUC [4]: 3650 ng·h/mL
Compound: [2H]C([2H])([2H])N1Cc2nc(NC(=O)C3CC3)cc(Nc3cccc(-c4ncn(C)n4)c3OC)c2C1=O

IC50 [5]: < 1 nM
Kd [6]: > 10000 nM
Compound: CNC(=O)c1cnc2cc1Nc1cc(cc(-c3ccn(C)n3)c1OC)CCOCc1cccc(n1)N2

Ki [7]: > 10000 nM
Compound: CO[C@@]1(c2cc(C)cc(-n3cc(C4CC4)c4cnc(NC(C)=O)cc43)n2)CCOC1

Kd [8]: 0.022 nM
IC50 [9]: 1.7 nM
Kd [10]: 0.023 nM
Compound: CNc1cc2nn3c(cnc13)C(=O)N[C@H](C)COCc1ccc(OC)c(c1)N2
